Measured values taken from US10029994B2, “Isoxazole hydroxamic acid compounds as LpxC inhibitors” (priority 2014, dated 2018).
Read-outs that look alike come from different tables or passages of the source.

How the values were obtained:
P. aeruginosa LpxC = molecular target: T1, P. aeruginosa LpxC (Pseudomonas aeruginosa, UniProt P47205); assay: P. aeruginosa LpxC Inhibition Assay (LC-MS/MS); type: biochemical; conditions: 1 nM P. aeruginosa LpxC, 30 min pre-incubation, 2 μM UDP-3-O-(R-3-hydroxydecanoyl)-GlcNAc, pH 7.5
T1 construct: made in house
T1 sequence (P47205 1-303): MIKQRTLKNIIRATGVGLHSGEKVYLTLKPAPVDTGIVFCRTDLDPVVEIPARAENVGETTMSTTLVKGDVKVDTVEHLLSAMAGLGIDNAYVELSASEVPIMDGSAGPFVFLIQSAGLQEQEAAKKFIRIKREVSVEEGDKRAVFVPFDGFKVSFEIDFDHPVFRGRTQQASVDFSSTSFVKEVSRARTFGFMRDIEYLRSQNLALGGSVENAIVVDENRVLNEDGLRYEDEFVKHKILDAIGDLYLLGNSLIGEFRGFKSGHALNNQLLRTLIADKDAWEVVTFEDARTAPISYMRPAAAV
Source text: P. aeruginosa LpxC Inhibition Assay
The P. aeruginosa LpxC protein is produced according to the general method of Hyland et al (Journal of Bacteriology 1997 179, 2029-2037: Cloning, expression and purification of UDP-3-O-acyl-GlcNAc deacetylase from Pseudomonas aeruginosa: a metalloamidase of the lipid A biosynthesis pathway). The LC-MS/MS method for quantitation of LpxC product was developed using an Agilent 1200 Capillary HPLC system coupled to an Applied Biosystems MDS Sciex 4000QTRAP mass spectrometer. Both instruments are controlled using the Applied Biosystems MDS Sciex Analyst software. LpxC reaction product (UDP-3-O—(R-3-hydroxyacyl)-glucosamine) was produced by hydrolysis of LpxC substrate catalyzed by P.a. LpxC and purified using reversed phase chromatography on a Phenomenex Luna C18(2) 4.6×50 mm column. An LpxC product calibration curve was generated to evaluate the sensitivity and dynamic range of the LC-MS/MS method. Briefly, compounds are pre-incubated with 1 nM P. aeruginosa LpxC for 30 min. at room temperature. Reactions are initiated by the addition of 2 μM UDP-3-O—(R-3-hydroxydecanoyl)-GlcNAc. Reactions are conducted in a 384-well plate with a total volume of 50 μL in each well containing 50 mM Sodium phosphate pH 7.5, 0.005% Trition X-100 for 20 min at room temperature. After quenching with 1.8% HOAc (5 μL of a 20% HOAc added to each well), reaction mixtures are analyzed using the LC-MS/MS method and peak areas are transformed into product concentration using a LpxC product calibration curve. Total activity (0% inhibition control) is obtained from reactions with no inhibitors and 100% inhibition control is the background using quenched samples before reaction starts. For IC50 determinations, peak areas are converted to percent inhibition in Microsoft Excel. Percent inhibition values are plotted vs. log compound concentration using XLfit. Data is fit to the four-parameter logistic equation using the non-linear regression algorithm in XLfit to return the IC50 and hill slope values.

P. A. PAO1 NB52019 = assay: MIC, broth microdilution (CLSI); type: cell-based, Pseudomonas aeruginosa; conditions: Pseudomonas aeruginosa, read-out: P. A. PAO1 NB52019 MIC
Experimental: (§1) Bacterial isolates were cultivated from −70° C. frozen stocks by two consecutive overnight passages at 35° C. in ambient air on 5% blood agar (Remel, Lenexa, Kans.). Quality control strain, P. aeruginosa ATCC 27853, A. baumannii ATCC19606 and E. coli ATCC 25922 are from the American Type Culture Collection (ATCC; Rockville, Md.) and PAO1 was received from Dr. K. Poole.
(§2) Minimal Inhibitory Concentrations (MICs) were determined by the broth microdilution method in accordance with Clinical and Laboratories Institute (CLSI) guidelines (CLSI M100-S25, Performance Standards for Antimicrobial Susceptibility Testing; Twenty-fifth Informational Supplement). In brief, fresh bacterial overnight cultures were resuspended in sterile saline, adjusted to a 0.5 McFarland turbidity standard and then diluted 2000-fold in cation adjusted Mueller-Hinton Broth II (MHB; Remel BBL) to yield a final inoculum of approximately 5×10^5 colony-forming units (CFU)/mL. Two-fold serial dilutions of compounds were prepared in 100% dimethyl sulfoxide (DMSO) at 100-fold the highest final assay concentration; the resulting dilution series of compounds were diluted 1:10 with sterile water. Ten μl of the drug dilution series in 10% DMSO was transferred to microtiter wells and 90 μl of bacterial suspension was inoculated into the wells. For testing the ability of compounds to potentiate the activity of known antibiotics, the assay was modified as follows; known antibiotics were added to the bacterial inoculum at 1.1-fold the final assay concentration indicated in Table A. All inoculated microdilution trays were incubated in ambient air at 35° C. for 20 hours. Following incubation, assay plates were read in a microtiter plate reader at 600 nm and visually inspected to confirm the MIC endpoint well with the OD value. The lowest concentration of the compound that prevented visible growth was recorded as the MIC. Performance of the assay was monitored by testing ciprofloxacin against the laboratory quality control strain in accordance with guidelines of the CLSI.

E. C. ATCC 25922 = assay: MIC, broth microdilution (CLSI); type: cell-based, Escherichia coli; conditions: Escherichia coli, ATCC25922, 20 h, read-out: E. C. ATCC 25922 MIC
Experimental: as §1, §2

E. C. ATCC 29522 = assay: MIC in the presence of sub-inhibitory rifampicin (potentiation/synergy); type: cell-based, Escherichia coli; conditions: +2 μg/ml rifampicin (RIF); broth microdilution, 35° C., 20 hours
Experimental: as §1, §2

A. B. ATCC 19606 [1] = assay: MIC, broth microdilution (CLSI); type: cell-based, Acinetobacter baumannii; conditions: Acinetobacter baumannii, read-out: A. B. ATCC 19606 MIC
Experimental: as §1, §2

A. B. ATCC 19606 [2] = assay: MIC in the presence of sub-inhibitory rifampicin (potentiation/synergy); type: cell-based, Acinetobacter baumannii; conditions: +2 μg/ml rifampicin (RIF); broth microdilution, 35° C., 20 hours
Experimental: as §1, §2

[3] = PAO1, broth microdilution, 35° C., 20 hours
[4] = broth microdilution, 35° C., 20 hours
[5] = ATCC19606, broth microdilution, 35° C., 20 hours

| Compound | IC50 (P. aeruginosa LpxC) [nM] | MIC (P. A. PAO1 NB52019; [3]) [µg/mL] | MIC (E. C. ATCC 25922; [4]) [µg/mL] | E. C. ATCC 29522 (+2 μg/ml RIF) MIC (E. C. ATCC 29522) [µg/mL] | MIC (A. B. ATCC 19606 [1]; [5]) [µg/mL] | A. B. ATCC 19606 (+2 μg/ml RIF) MIC (A. B. ATCC 19606 [2]) [µg/mL] | MIC (P. A. PAO1 NB52019; PAO1, 20 h) [µg/mL] | MIC (E. C. ATCC 25922) [µg/mL] | MIC (A. B. ATCC 19606 [1]; ATCC19606, 20 h) [µg/mL] |
| --- | --- | --- | --- | --- | --- | --- | --- | --- | --- |
| CC1(C#Cc2cc(CC[C@](C)(C(=O)NO)S(C)(=O)=O)no2)CC1 [Compound 1.8, (R)—N-hydroxy-2-methyl-4-(5-((1-methylcyclopropyl)ethynyl)isoxazol-3-yl)-2-(methylsulfonyl)butanamide] | < 1 | 0.25 | 8 | 0.25 | > 64 | ≤0.06 | – | – | – |
| CC/C=C/c1cc(CC[C@](C)(C(=O)NO)S(C)(=O)=O)no1 [Compound 4.1, (R,E)-4-(5-(but-1-en-1-yl)isoxazol-3-yl)-N-hydroxy-2-methyl-2-(methylsulfonyl)butanamide] | < 1 | 0.5 | 8 | 0.125 | > 64 | 1 | – | – | – |
| CC(NCc1cc(C#Cc2ccccc2)on1)(C(=O)NO)C(O)c1cc(CO)on1 (stereo not drawn) [Compound 3.4, N,3-dihydroxy-3-(5-(hydroxymethyl)isoxazol-3-yl)-2-methyl-2-(((5-(phenylethynyl)isoxazol-3-yl)methyl)amino)propanamide] | < 1 | 0.5 | 1 | ≤0.06 | > 64 | 0.125 | – | – | – |
| COCCCCC#Cc1cc(CN[C@](C)(C(=O)NO)[C@@H](O)c2cc(C)on2)no1 [Compound 3.5, (2S,3R)—N,3-dihydroxy-2-(((5-(6-methoxyhex-1-yn-1-yl)isoxazol-3-yl)methyl)amino)-2-methyl-3-(5-methylisoxazol-3-yl)propanamide] | 3 | 16 | 16 | 2 | 32 | 1 | – | – | – |
| C[C@@](CCc1cc(/C(F)=C/C2CC2)on1)(C(=O)NO)S(C)(=O)=O [Compound 4.5-1, (R,Z)-4-(5-(2-cyclopropyl-1-fluorovinyl)isoxazol-3-yl)-N-hydroxy-2-methyl-2-(methylsulfonyl)butanamide] | < 1 | 0.25 | 2 | 0.25 | > 64 | 0.25 | – | – | – |
| CC(CCc1cc(C#Cc2ccc(CO)cc2)on1)(C(=O)NO)S(C)(=O)=O (stereo not drawn) [Compound 2.1, N-hydroxy-4-(5-((4-(hydroxymethyl)phenyl)ethynyl)isoxazol-3-yl)-2-methyl-2-(methylsulfonyl)butanamide] | < 1 | 0.5 | 2 | ≤0.06 | > 64 | 2 | – | – | – |
| C[C@@](CCc1cc(C2=CCCCC2)on1)(C(=O)NO)S(C)(=O)=O [Compound 4.8, (R)-4-(5-(cyclohex-1-en-1-yl)isoxazol-3-yl)-N-hydroxy-2-methyl-2-(methylsulfonyl)butanamide] | < 1 | 0.25 | 4 | 0.5 | > 64 | 1 | – | – | – |
| Cc1cc([C@H](O)[C@](C)(NCc2cc(C#CC3CCC3)on2)C(=O)NO)no1 [Compound 3.2, (2S,3R)-2-(((5-(cyclobutylethynyl)isoxazol-3-yl)methyl)amino)-N,3-dihydroxy-2-methyl-3-(5-methylisoxazol-3-yl)propanamide] | < 1 | 1 | 1 | 0.5 | > 64 | ≤0.06 | – | – | – |
| CC(C)(O)CCC#Cc1cc(CC[C@](C)(C(=O)NO)S(C)(=O)=O)no1 [Compound 1.14, (R)—N-hydroxy-4-(5-(5-hydroxy-5-methylhex-1-yn-1-yl)isoxazol-3-yl)-2-methyl-2-(methylsulfonyl)butanamide] | 2 | 8 | > 64 | 16 | > 64 | ≤0.06 | – | – | – |
| C/C=C(\C)c1cc(CC[C@](C)(C(=O)NO)S(C)(=O)=O)no1 [Compound 4.3-1, (R,E)-4-(5-(but-2-en-2-yl)isoxazol-3-yl)-N-hydroxy-2-methyl-2-(methylsulfonyl)butanamide] | 3 | – | – | 0.5 | – | 8 | 2 | 32 | > 64 |
| CC(C)(O)C1CC(C#Cc2cc(CC[C@](C)(C(=O)NO)S(C)(=O)=O)no2)C1 (stereo partly drawn) [Compound 1.16, (R)—N-hydroxy-4-(5-((3-(2-hydroxypropan-2-yl)cyclobutyl)ethynyl)isoxazol-3-yl)-2-methyl-2-(methylsulfonyl)butanamide] | < 1 | 2 | 16 | 4 | > 64 | 4 | – | – | – |
